Data: patent publication US10030016B2 (Sunesis Pharmaceuticals, Inc., priority 2009, dated 2018)

Columns and labels:
PDK1 = PDK1 (Homo sapiens (Human), UniProt O15530); experiment: PDK1 kinase assay (coupled PDK1/AKT/FAM-crosstide assay, IMAP fluorescence polarization); type: biochemical; details: inhibition of PDK1 in vitro
Method in brief: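 GST-tagged human PDK1 (aa 51-359, 0.75 nM) from insect cells activated unphosphorylated GST-AKT2 (aa 140-467–PIFtide fusion, 10 nM), which phosphorylated 100 nM FAM-crosstide; 40 μM ATP, pH 7.2 Tris/MgCl2, 30 min at 25° C. IMAP fluorescence polarization read-out; ΔmP versus compound concentration fitted with a 4-parameter curve.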

[1] = test system: phospho-akt (Thr308) in PC-3 cells; experiment: Inhibition of phospho-akt (Thr308) in PC-3 cells, MSD phospho-akt 308 ELISA kit; type: cell-based; details: Homo sapiens; inhibition of P308 Akt in PC-3 cells using MSD, 2 hours, no serum; read-out: EC50
Method in brief: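 PC-3 cells were seeded overnight in growth medium with 10% FBS, then exposed to compound serially diluted threefold in serum-free medium for 2 hours. Lysates were captured overnight at 4 degrees on MSD plates and phospho-Akt Thr308 was detected electrochemiluminescently, against DMSO high and 5 μM wortmannin low controls.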

Sequence of PDK1 (O15530 51-359): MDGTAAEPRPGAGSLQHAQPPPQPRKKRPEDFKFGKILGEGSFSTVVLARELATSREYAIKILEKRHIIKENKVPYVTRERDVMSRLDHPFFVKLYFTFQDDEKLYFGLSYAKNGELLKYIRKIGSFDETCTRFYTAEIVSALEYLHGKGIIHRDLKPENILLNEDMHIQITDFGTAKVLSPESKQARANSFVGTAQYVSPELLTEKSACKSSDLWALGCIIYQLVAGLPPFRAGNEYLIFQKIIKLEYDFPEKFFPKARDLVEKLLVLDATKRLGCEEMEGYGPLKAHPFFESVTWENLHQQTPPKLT

Compound | IC50 (PDK1) [µM] | EC50 [1] [µM]
C[C@H](NC(=O)c1nc(C#N)cnc1NCc1ccc(-c2cn(CCN(C)C)c3ncnc(N)c23)cc1)c1ccc(F)c(F)c1 [Example 398, (S)-3-(4-(4-amino-7-(2-(dimethylamino)ethyl)-7H-pyrrolo[2,3-d]pyrimidin-5-yl)benzylamino)-6-cyano-N-(1-(3,4-difluorophenyl)ethyl)pyrazine-2-carboxamide] | < 0.1 | 1 to 10
C[C@H](NC(=O)c1nc(C#N)cnc1N[C@H](C)c1ccc(-c2cn(C)c3ncnc(N)c23)cc1)c1ccc(F)c(F)c1 [Example 399, 3-((R)-1-(4-(4-amino-7-methyl-7H-pyrrolo[2,3-d]pyrimidin-5-yl)phenyl)ethylamino)-6-cyano-N-((S)-1-(3,4-difluorophenyl)ethyl)pyrazine-2-carboxamide] | < 0.1 | < 1
Cc1nc2[nH]nc(N)c2cc1-c1ccc(CNc2ncc(C#N)nc2C(=O)N[C@@H](C)c2ccc(F)c(F)c2)cc1 [Example 400, (S)-3-(4-(3-amino-6-methyl-1H-pyrazolo[3,4-b]pyridin-5-yl)benzylamino)-6-cyano-N-(1-(3,4-difluorophenyl)ethyl)pyrazine-2-carboxamide] | < 0.1 | 1 to 10
C[C@H](NC(=O)c1nc(C#N)cnc1N[C@H](C)c1ccc(-c2c[nH]c3ncnc(N)c23)cc1)c1ccc(F)c(F)c1 [Example 402, 3-((R)-1-(4-(4-amino-7H-pyrrolo[2,3-d]pyrimidin-5-yl)phenyl)ethylamino)-6-cyano-N-((S)-1-(3,4-difluorophenyl)ethyl)pyrazine-2-carboxamide] | < 0.1 | < 1
C[C@@H](Nc1ncc(C(F)(F)F)cc1C(=O)Nc1ccc(F)cc1)c1ccc(-c2cn(C)c3ncnc(N)c23)cc1 [Example 403, (R)-2-(1-(4-(4-amino-7-methyl-7H-pyrrolo[2,3-d]pyrimidin-5-yl)phenyl)ethylamino)-N-(4-fluoro-phenyl)-5-(trifluoromethyl) nicotinamide] | < 0.1 | 1 to 10
Nc1ncnc2c1c(-c1ccc(CNc3ncc(C(F)(F)F)cc3C(=O)Nc3ccc(F)cc3)cc1)cn2CCCCO [Example 404, 2-(4-(4-amino-7-(4-hydroxybutyl)-7H-pyrrolo [2,3-d]pyrimidin-5-yl)benzylamino)-N-(4-fluorophenyl)-5-(trifluoromethyl)nicotinamide] | < 0.1 | 1 to 10
CC(C)(O)Cn1cc(-c2ccc(CNc3ncc(C(F)(F)F)cc3C(=O)Nc3ccc(F)cc3)cc2)c2c(N)ncnc21 [Example 405, 2-(4-(4-amino-7-(2-hydroxy-2-methylpropyl)-7H-pyrrolo[2,3-d]pyrimidin-5-yl)benzylamino)-N-(4-fluorophenyl)-5-(trifluoromethyl)nicotinamide] | < 0.1 | 1 to 10
Cc1cc(CNc2ncc(C#N)cc2C(=O)N[C@@H](C)c2ccc(F)cc2)ccc1-c1cnc2[nH]nc(N)c2c1 [Example 408, 2-[4-(3-Amino-1H-pyrazolo [3,4-b]pyridin-5-yl)-3-methyl-benzylamino]-5-cyano-N-[(S)-1-(4-fluoro-phenyl)-ethyl]-nicotinamide] | < 0.1 | 1 to 10
C[C@H](NC(=O)c1nc(C#N)cnc1NCc1ccc(-c2ccc(N)nn2)cc1)c1ccc(F)c(F)c1 [Example 409, (S)-3-(4-(6-aminopyridazin-3-yl)benzylamino)-6-cyano-N-(1-(3,4-difluorophenyl)ethyl)pyrazine-2-carboxamide] | < 0.1 | 1 to 10
Cc1n[nH]c2ncc(-c3ccc(CNc4ncc(C#N)nc4C(=O)N[C@@H](C)c4ccc(F)c(F)c4)cc3)cc12 [Example 410, (S)-6-cyano-N-(1-(3,4-difluorophenyl)ethyl)-3-(4-(3-methyl-1H-pyrazolo [3,4-b]pyridin-5-yl)benzylamino)pyrazine-2-carboxamide] | < 0.1 | < 1
C[C@H](NC(=O)c1nc(C#N)cnc1N[C@H](C)c1ccc(-c2cnc3[nH]nc(N)c3n2)cc1)c1ccc(F)c(F)c1 [Example 411, 3-{(R)-1-[4-(3-Amino-1H-pyrazolo[3,4-b]pyrazin-5-yl)-phenyl]-ethylamino}-6-cyano-pyrazine-2-carboxylic acid [(S)-1-(3,4-difluoro-phenyl)-ethyl]-amide] | < 0.1 | < 1
C[C@@H](Nc1ncc(C(F)(F)F)cc1C(=O)Nc1ccc(F)cc1)c1ccc(-c2cnc3[nH]nc(N)c3n2)cc1 [Example 412, 2-{(R)-1-[4-(3-Amino-1H-pyrazolo[3,4-b]pyrazin-5-yl)-phenyl]-ethylamino}-N-(4-fluoro-phenyl)-5-trifluoromethyl-nicotinamide] | < 0.1 | 1 to 10
CN(Cc1ccc(F)c(F)c1)C(=O)c1nc(C#N)cnc1NCc1ccc(-c2cnc3[nH]nc(N)c3c2)cc1 [Example 413, 3-(4-(3-amino-1H-pyrazolo[3,4-b]pyridin-5-yl)benzylamino)-6-cyano-N-(3,4-difluorobenzyl)-N-methylpyrazine-2-carboxamide] | < 0.1 | < 1
C[C@H](NC(=O)c1nc(C#N)cnc1NCc1ccc(-c2cnc3c(c2)c(N)nn3C)cc1)c1ccc(F)c(F)c1 [Example 414, (S)-3-(4-(3-amino-1-methyl-1H-pyrazolo[3,4-b]pyridin-5-yl)benzylamino)-6-cyano-N-(1-(3,4-difluorophenyl)ethyl) pyrazine-2-carboxamide] | 1 to 5 | 1 to 10
C[C@@H](NC(=O)c1nc(C#N)cnc1NCc1ccc(-c2cnc3[nH]nc(N)c3c2)cc1)c1ccc(F)c(F)c1 [Example 417, (R)-3-(4-(3-amino-1H-pyrazolo[3,4-b]pyridin-5-yl)benzylamino)-6-cyano-N-(1-(3,4-difluorophenyl)ethyl) pyrazine-2-carboxamide] | 0.1 to 1 | 1 to 10
Nc1n[nH]c2ncc(-c3ccc(CNc4ncc(C(F)(F)F)cc4C(=O)NCc4ccc(Cl)c(F)c4)cc3)cc12 [Example 419, 2-(4-(3-amino-1H-pyrazolo [3,4-b]pyridin-5-yl)benzylamino)-N-(4-chloro-3-fluorobenzyl)-5-(trifluoromethyl)nicotinamide] | < 0.1 | 1 to 10
C[C@H](NC(=O)c1nc(C#N)cnc1NCc1ccc(-c2cnc3[nH]nc(NC(=O)C(C)(C)C)c3c2)cc1)c1ccc(F)c(F)c1 [Example 420, (S)-6-cyano-N-(1-(3,4-difluorophenyl)ethyl)-3-(4-(3-pivalamido-1H-pyrazolo[3,4-b]pyridin-5-yl)benzylamino)pyrazine-2-carboxamide] | < 0.1 | 1 to 10
C[C@@H](Nc1ncc(C(F)(F)F)nc1C(=O)Nc1ccc(F)cc1)c1ccc(-c2cnc3[nH]nc(N)c3c2)cc1 [Example 421, (R)-3-(1-(4-(3-amino-1H-pyrazolo[3,4-b]pyridin-5-yl)phenyl)ethylamino)-N-(4-fluorophenyl)-6-(trifluoromethyl)pyrazine-2-carboxamide] | < 0.1 | < 1
C[C@@H](Nc1ncc(C(F)(F)F)cc1C(=O)Nc1ccc(F)cc1)c1ccc(-c2cnc3[nH]nc(N)c3c2)cc1 [Example 422, 2-{(R)-1-[4-(3-Amino-1H-pyrazolo[3,4-b]pyridin-5-yl)-phenyl]-ethylamino}-N-(4-fluoro-phenyl)-5-trifluoromethyl-nicotinamide] | < 0.1 | < 1
C[C@H](NC(=O)c1cc(C#N)cnc1N[C@H](C)c1ccc(-c2cnc3[nH]nc(N)c3c2)cc1)c1ccc(F)cc1 [Example 423, 2-{(R)-1-[4-(3-Amino-1H-pyrazolo[3,4-b]pyridin-5-yl)-phenyl]-ethylamino}-5-cyano-N-[(S)-1-(4-fluoro-phenyl)-ethyl]-nicotinamide] | < 0.1 | < 1
C[C@H](NC(=O)c1cc(C#N)cnc1Nc1ccc(-c2cnc3[nH]nc(N)c3c2)cc1)c1ccc(F)cc1 [Example 424, (S)-2-(4-(3-amino-1H-pyrazolo[3,4-b]pyridin-5-yl)phenylamino)-5-cyano-N-(1-(4-fluorophenyl)ethyl)nicotinamide] | < 0.1 | 1 to 10
N#Cc1ccc(NC(=O)c2nc(C#N)cnc2NCc2ccc(-c3cnc4[nH]nc(N)c4c3)cc2)cc1 [Example 425, 3-(4-(3-amino-1H-pyrazolo[3,4-b]pyridin-5-yl)benzylamino)-6-cyano-N-(4-cyanophenyl) pyrazine-2-carboxamide] | < 0.1 | < 1
N#Cc1cnc(NCc2ccc(-c3cnc4[nH]nc(N)c4c3)cc2)c(C(=O)Nc2ccc(Cl)cc2)n1 [Example 426, 3-(4-(3-amino-1H-pyrazolo[3,4-b]pyridin-5-yl)benzylamino)-N-(4-chlorophenyl)-6-cyanopyrazine-2-carboxamide] | < 0.1 | < 1
CCCn1cc(-c2ccc(CNc3ncc(C(F)(F)F)cc3C(=O)Nc3ccc(F)cc3)cc2)c2c(N)ncnc21 [Example 429, 2-(4-(4-amino-7-propyl-7H-pyrrolo[2,3-d]pyrimidin-5-yl)benzylamino)-N-(4-fluorophenyl)-5-(trifluoromethyl)nicotinamide] | < 0.1 | 1 to 10
CCn1cc(-c2ccc(CNc3ncc(C(F)(F)F)cc3C(=O)Nc3ccc(F)cc3)cc2)c2c(N)ncnc21 [Example 430, 2-(4-(4-amino-7-ethyl-7H-pyrrolo[2,3-d]pyrimidin-5-yl)benzylamino)-N-(4-fluorophenyl)-5-(trifluoromethyl)nicotinamide] | < 0.1 | 1 to 10
COCCn1cc(-c2ccc(CNc3ncc(C(F)(F)F)cc3C(=O)Nc3ccc(F)cc3)cc2)c2c(N)ncnc21 [Example 431] | < 0.1 | 1 to 10
